Experiments:
Type in all cases: ADME
Details in all cases: 0.5 h
Cytochrome P450 1B1 [1] = molecular target: T1, Cytochrome P450 1B1 (Homo sapiens, UniProt Q16678); assay: Drug metabolism in supersomes expressing human recombinant CYP1B1 assessed as enzyme-mediated total GSH conjugate formation at 100 uM after 30 mins measured per nmol of P450 by HPLC analysis in presence of GSH and hGST P1-1
T1 sequence (Q16678 whole entry): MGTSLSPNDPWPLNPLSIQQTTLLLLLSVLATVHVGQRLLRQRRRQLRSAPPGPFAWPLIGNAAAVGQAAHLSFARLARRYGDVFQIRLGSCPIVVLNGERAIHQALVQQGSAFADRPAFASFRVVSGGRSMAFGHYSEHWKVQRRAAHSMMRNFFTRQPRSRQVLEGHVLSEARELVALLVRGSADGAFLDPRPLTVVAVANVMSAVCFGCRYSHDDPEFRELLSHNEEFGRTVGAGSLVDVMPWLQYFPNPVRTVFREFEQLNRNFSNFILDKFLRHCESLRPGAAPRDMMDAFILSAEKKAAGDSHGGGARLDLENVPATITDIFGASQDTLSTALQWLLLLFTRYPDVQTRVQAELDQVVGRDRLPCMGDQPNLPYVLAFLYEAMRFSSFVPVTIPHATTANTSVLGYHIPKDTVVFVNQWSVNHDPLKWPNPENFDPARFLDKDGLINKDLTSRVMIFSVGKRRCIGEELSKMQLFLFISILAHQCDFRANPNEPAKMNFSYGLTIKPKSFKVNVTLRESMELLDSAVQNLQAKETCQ

Cytochrome P450 1A2 = molecular target: T2, Cytochrome P450 1A2 (Homo sapiens, UniProt P05177); assay: Drug metabolism in supersomes expressing human recombinant CYP1A2 assessed as enzyme-mediated total GSH conjugate formation at 100 uM after 30 mins measured per nmol of P450 by HPLC analysis in presence of GSH and hGST P1-1
T2 sequence (P05177 whole entry): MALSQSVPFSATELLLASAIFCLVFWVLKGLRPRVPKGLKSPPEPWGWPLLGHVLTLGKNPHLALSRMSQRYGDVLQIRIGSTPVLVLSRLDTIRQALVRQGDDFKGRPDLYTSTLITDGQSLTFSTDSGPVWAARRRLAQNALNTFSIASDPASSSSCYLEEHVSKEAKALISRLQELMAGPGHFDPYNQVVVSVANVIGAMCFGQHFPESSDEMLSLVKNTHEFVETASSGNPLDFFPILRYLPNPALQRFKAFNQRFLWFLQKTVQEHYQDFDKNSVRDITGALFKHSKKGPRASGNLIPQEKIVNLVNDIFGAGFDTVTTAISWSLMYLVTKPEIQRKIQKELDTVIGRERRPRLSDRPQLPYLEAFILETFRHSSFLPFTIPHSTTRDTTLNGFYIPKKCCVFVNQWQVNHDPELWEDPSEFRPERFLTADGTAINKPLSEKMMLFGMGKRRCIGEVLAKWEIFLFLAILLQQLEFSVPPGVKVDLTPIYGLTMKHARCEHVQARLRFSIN

Cytochrome P450 2A6 = molecular target: T3, Cytochrome P450 2A6 (Homo sapiens, UniProt P11509); assay: Drug metabolism in supersomes expressing human recombinant CYP2A6 assessed as enzyme-mediated cyanide adduct formation at 100 uM after 30 mins measured per nmol of P450 by HPLC analysis in presence of KCN
T3 sequence (P11509 whole entry): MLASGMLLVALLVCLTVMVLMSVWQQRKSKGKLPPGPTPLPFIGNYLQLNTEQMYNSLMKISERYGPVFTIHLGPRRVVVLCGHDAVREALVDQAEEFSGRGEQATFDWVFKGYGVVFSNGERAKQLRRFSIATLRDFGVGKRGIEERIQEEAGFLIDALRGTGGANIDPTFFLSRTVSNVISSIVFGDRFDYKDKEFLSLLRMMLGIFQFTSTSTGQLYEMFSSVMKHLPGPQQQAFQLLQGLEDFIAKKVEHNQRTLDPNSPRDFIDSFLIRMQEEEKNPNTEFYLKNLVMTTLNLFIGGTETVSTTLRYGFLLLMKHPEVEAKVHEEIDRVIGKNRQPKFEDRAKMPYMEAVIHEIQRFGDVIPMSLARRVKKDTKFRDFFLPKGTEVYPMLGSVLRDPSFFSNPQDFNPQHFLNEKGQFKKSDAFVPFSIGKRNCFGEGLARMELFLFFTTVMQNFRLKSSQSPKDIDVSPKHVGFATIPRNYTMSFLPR

Cytochrome P450 2C8 [2] = molecular target: T4, Cytochrome P450 2C8 (Homo sapiens, UniProt P10632); assay: Drug metabolism in supersomes expressing human recombinant CYP2C8 assessed as enzyme-mediated N-desmethylclozapine metabolite formation at 10 uM after 30 mins measured per nmol of P450 by HPLC analysis
T4 sequence (P10632 whole entry): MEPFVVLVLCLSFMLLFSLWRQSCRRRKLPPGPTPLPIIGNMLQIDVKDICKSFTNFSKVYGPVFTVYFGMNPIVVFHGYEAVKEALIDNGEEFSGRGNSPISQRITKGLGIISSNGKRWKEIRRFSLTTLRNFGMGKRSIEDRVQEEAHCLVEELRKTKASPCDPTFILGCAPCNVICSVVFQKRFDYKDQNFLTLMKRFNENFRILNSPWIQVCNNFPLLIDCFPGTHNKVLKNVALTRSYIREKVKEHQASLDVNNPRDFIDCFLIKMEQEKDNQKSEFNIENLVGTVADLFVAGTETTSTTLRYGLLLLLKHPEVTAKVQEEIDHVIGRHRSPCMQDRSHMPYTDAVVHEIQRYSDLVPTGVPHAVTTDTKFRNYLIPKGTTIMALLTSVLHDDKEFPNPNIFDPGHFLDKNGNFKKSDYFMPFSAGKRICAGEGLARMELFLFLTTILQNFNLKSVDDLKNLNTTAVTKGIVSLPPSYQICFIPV

Cytochrome P450 2C8 [3] = molecular target: T4, Cytochrome P450 2C8; assay: Drug metabolism in supersomes expressing human recombinant CYP2C8 assessed as enzyme-mediated cyanide adduct formation at 100 uM after 30 mins measured per nmol of P450 by HPLC analysis in presence of KCN
Cytochrome P450 1B1 [4] = molecular target: T1, Cytochrome P450 1B1; assay: Drug metabolism in supersomes expressing human recombinant CYP1B1 assessed as enzyme-mediated cyanide adduct formation at 100 uM after 30 mins measured per nmol of P450 by HPLC analysis in presence of KCN
Cytochrome P450 2C19 = Cytochrome P450 2C19 (Homo sapiens, UniProt P33261); assay: Drug metabolism in supersomes expressing human recombinant CYP2C19 assessed as enzyme-mediated cyanide adduct formation at 100 uM after 30 mins measured per nmol of P450 by HPLC analysis in presence of KCN
Chain of Cytochrome P450 2C19 (P33261 whole entry): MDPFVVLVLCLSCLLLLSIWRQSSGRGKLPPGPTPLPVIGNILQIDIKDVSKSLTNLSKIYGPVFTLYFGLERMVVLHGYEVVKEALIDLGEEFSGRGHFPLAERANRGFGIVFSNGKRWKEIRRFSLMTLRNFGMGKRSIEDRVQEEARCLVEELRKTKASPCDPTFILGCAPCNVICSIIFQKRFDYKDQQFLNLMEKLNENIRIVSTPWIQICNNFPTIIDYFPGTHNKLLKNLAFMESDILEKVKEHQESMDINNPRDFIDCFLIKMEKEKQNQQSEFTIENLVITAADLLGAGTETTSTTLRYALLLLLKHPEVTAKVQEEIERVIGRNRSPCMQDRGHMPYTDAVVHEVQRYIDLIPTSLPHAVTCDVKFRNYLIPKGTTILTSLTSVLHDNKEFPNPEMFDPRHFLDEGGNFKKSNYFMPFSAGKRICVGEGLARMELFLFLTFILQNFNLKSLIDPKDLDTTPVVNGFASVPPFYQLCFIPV

Cytochrome P450 2C9 [5] = molecular target: T5, Cytochrome P450 2C9 (Homo sapiens, UniProt P11712); assay: Drug metabolism in supersomes expressing human recombinant CYP2C9 assessed as enzyme-mediated cyanide adduct formation at 100 uM after 30 mins measured per nmol of P450 by HPLC analysis in presence of KCN
T5 sequence (P11712 whole entry): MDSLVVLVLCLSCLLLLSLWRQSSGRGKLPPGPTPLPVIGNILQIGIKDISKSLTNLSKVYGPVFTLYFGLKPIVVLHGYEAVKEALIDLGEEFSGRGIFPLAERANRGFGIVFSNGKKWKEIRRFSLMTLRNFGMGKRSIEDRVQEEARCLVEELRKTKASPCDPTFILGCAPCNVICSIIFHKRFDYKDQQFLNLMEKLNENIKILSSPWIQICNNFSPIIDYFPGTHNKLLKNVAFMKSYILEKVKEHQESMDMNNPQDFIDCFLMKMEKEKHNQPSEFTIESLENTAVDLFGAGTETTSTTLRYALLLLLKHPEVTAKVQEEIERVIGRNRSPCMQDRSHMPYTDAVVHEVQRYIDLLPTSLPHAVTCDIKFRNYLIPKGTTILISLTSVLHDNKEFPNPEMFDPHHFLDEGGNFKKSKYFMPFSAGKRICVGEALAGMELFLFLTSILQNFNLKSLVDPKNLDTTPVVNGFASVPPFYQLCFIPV

Cytochrome P450 2C9 [6] = molecular target: T5, Cytochrome P450 2C9; assay: Drug metabolism in supersomes expressing human recombinant CYP2C9 assessed as enzyme-mediated N-desmethylclozapine metabolite formation at 100 uM after 30 mins measured per nmol of P450 by HPLC analysis

CN1CCN(C2=Nc3cc(Cl)ccc3Nc3ccccc32)CC1 [CLOZAPINE]
Drug metabolism (Cytochrome P450 1B1 [1]): 0.15 nmol/min | Drug metabolism (Cytochrome P450 1A2): 0.25 nmol/min | Drug metabolism (Cytochrome P450 2A6): 0.17 nmol/min | Drug metabolism (Cytochrome P450 2C8 [2]): 0.92 nmol/min | Drug metabolism (Cytochrome P450 2C8 [3]): 0.058 nmol/min | Drug metabolism (Cytochrome P450 1B1 [4]): 0.01 nmol/min | Drug metabolism (Cytochrome P450 2C19): 0.03 nmol/min | Drug metabolism (Cytochrome P450 2C9 [5]): 0.01 nmol/min | Drug metabolism (Cytochrome P450 2C9 [6]): 0.22 nmol/min
